Results from patent publication US10065972B2, “Bicyclic or tricyclic heterocyclic compound” (MITSUBISHI TANABE PHARMA CORPORATION, priority 2014, dated 2018).

Molecular target: human recombinant KAT-II (Homo sapiens (Human), UniProt Q8N5Z0)
Experiment: KAT-II inhibitory test
Format: biochemical
Details: 3.0 μmol/L kynurenine, 37° C., 1 hr, pH 8.0; kynurenic acid quantified by HPLC
Description: The compounds described in the above-mentioned Examples were used for the KAT-II inhibitory test.
Preparation of Human Recombinant KAT-II
Human recombinant KAT-II was prepared as follows.
His tag and maltose binding protein tag were added to the N-terminal of a gene encoding human KAT-II (Genbank accession number: AF481738.1), and the obtained gene was incorporated into pET32 (Merck Nihon Millipore), which is an Escherichia coli expression vector. Human recombinant KAT-II produced by BL21(DE3) Escherichia coli (Merck Nihon Millipore, 69450) transformed using the plasmid was purified using an amylose resin column (New England Biolabs, #800-21 L).
The inhibitory action of the test compound on human recombinant KAT-II was determined by the following method.
To a reaction mixture (45 μL) containing 3.0 μmol/L kynurenine, 10 μmol/L pyridoxal phosphate, 2.0 ng/μL human recombinant KAT-II, and 150 mmol/L tris(hydroxymethyl)aminomethane-acetate buffer (pH 8.0) was added a 10% dimethyl sulfoxide solution (5 μL) of each test compound prepared, and the mixture was reacted at 37° C. for 1 hr. After the reaction, 50% trichloroacetic acid (5 μL) was added to terminate the reaction.
The resultant kynurenic acid was quantified as follows by high performance liquid chromatography. An enzyme reaction mixture was separated by an octadecylsilane reversed-phase column (SC-50DS, Eicom Corporation; mobile phase: 250 mmol/L zinc acetate, 50 mmol/L sodium acetate, and 5.0% acetonitrile (pH 6.2)) incubated at 30° C., and kynurenic acid was quantified using a fluorescence detector (RF-20Axs, Shimadzu Corporation) at excitation wavelength 354 nm, detection wavelength 460 nm. The analytical curve was drawn every time by an external standard method. Each test compound was tested by dual measurement at each concentration.

Chain of human recombinant KAT-II (Q8N5Z0 30-425): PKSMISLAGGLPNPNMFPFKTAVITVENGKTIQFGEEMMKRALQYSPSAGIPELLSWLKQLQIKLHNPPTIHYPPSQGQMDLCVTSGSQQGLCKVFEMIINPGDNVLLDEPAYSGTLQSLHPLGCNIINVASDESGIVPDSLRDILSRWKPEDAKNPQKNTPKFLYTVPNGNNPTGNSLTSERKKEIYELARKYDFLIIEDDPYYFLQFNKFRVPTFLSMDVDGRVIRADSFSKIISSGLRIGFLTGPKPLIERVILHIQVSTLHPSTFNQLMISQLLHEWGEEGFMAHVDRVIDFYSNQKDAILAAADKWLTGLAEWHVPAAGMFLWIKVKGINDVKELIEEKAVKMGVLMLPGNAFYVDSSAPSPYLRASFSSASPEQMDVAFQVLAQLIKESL

SMILES | IC50
Cc1nc2sc([C@H]3CCCN3C(=O)Nc3csc4ncccc34)nn2c(=O)c1C [Example 175, (R)-2-(6,7-dimethyl-5-oxo-5H-[1,3,4]thiadiazolo[3,2-a]pyrimidin-2-yl)-N-(thieno[2,3-b]pyridin-3-yl)-pyrrolidine-1-carboxamide] | 3700 nM
CCCc1cc(=O)n2nc(N3CCCN3C(=O)Oc3ccccc3)sc2n1 [Example 176, 2-(5-oxo-7-propyl-5H-[1,3,4]thiadiazolo[3,2-a]pyrimidin-2-yl)pyrazolidine-1-carboxylic acid phenyl ester] | 520 nM
Cn1c(-c2ccccn2)nc2sc(N3CCC[C@@H]3C(=O)NCc3ccccc3)nc2c1=O [Example 194, (R)-N-benzyl-1-[6-methyl-7-oxo-5-(pyridin-2-yl)-6,7-dihydro-[1,3]thiazolo[5,4-d]pyrimidin-2-yl]pyrrolidine-2-carboxamide] | 76 nM
Cn1c(-c2c(F)cc(F)cc2F)nc2sc(N3CCC[C@@H]3C(=O)NCc3ccccc3)nc2c1=O [Example 203, (R)-N-benzyl-1-[6-methyl-7-oxo-5-(2,4,6-trifluorophenyl)-6,7-dihydro[1,3]thiazolo[5,4-d]pyrimidin-2-yl]pyrrolidine-2-carboxamide] | 14 nM
Cn1c(-c2c(F)cccc2F)nc2sc(N3CCC[C@@H]3C(=O)NCc3ccccc3)nc2c1=O [Example 204, (R)-N-benzyl-1-[5-(2,6-difluorophenyl)-6-methyl-7-oxo-6,7-dihydro[1,3]thiazolo[5,4-d]pyrimidin-2-yl]pyrrolidine-2-carboxamide] | 7 nM
Cc1noc(-c2nc3sc(N4CCC[C@@H]4C(=O)NCc4ccc(F)cc4)nc3c(=O)n2C)n1 [Example 213, (R)-N-(4-fluorobenzyl)-1-[6-methyl-5-(3-methyl-[1,2,4]oxadiazol-5-yl)-7-oxo-6,7-dihydro[1,3]thiazolo[5,4-d]pyrimidin-2-yl]pyrrolidine-2-carboxamide] | 16 nM
Cc1ccccc1CNC(=O)[C@H]1CCCN1c1nc2c(=O)n(C)c(C)nc2s1 [Example 229, (R)-1-(5,6-dimethyl-7-oxo-6,7-dihydro-[1,3]thiazolo[5,4-d]pyrimidin-2-yl)-N-(2-methylbenzyl)pyrrolidine-2-carboxamide] | 21 nM
O=C(NCc1ccccc1)[C@H]1CCCN1c1nc2c(=O)n(C3CCOCC3)c(C(F)(F)F)nc2s1 [Example 244, (R)-N-benzyl-1-[7-oxo-6-(tetrahydro-2H-pyran-4-yl)-5-trifluoromethyl-6,7-dihydro-[1,3]thiazolo[5,4-d]pyrimidin-2-yl]pyrrolidine-2-carboxamide] | 11 nM
O=C(NCc1ccccc1)[C@H]1CCCN1c1nc2c(=O)n(C3COC3)c(C(F)(F)F)nc2s1 [Example 251, (R)-N-benzyl-1-[6-(oxetan-3-yl)-7-oxo-5-trifluoromethyl-6,7-dihydro-[1,3]thiazolo[5,4-d]pyrimidin-2-yl]pyrrolidine-2-carboxamide] | 40 nM
O=C(NCc1ccccc1)[C@H]1CCCN1c1nc2c(=O)n(N3CCOCC3)c(C(F)(F)F)nc2s1 [Example 253, (R)-N-benzyl-1-[6-(morpholin-4-yl)-7-oxo-5-trifluoromethyl-6,7-dihydro-[1,3]thiazolo[5,4-d]pyrimidin-2-yl]pyrrolidine-2-carboxamide] | 89 nM
CN1CCC(n2c(C(F)(F)F)nc3sc(N4CCC[C@@H]4C(=O)NCc4ccccc4)nc3c2=O)CC1 [Example 264, (R)-N-benzyl-1-[6-(1-methylpiperidin-4-yl)-7-oxo-5-trifluoromethyl-6,7-dihydro-[1,3]thiazolo[5,4-d]pyrimidin-2-yl]pyrrolidine-2-carboxamide] | 160 nM
C[C@@H](NC(=O)[C@H]1CCCN1c1nc2c(=O)n(C)c(C(C)(F)F)nc2s1)c1ccccc1 [Example 267, (R)-1-[5-(1,1-difluoroethyl)-6-methyl-7-oxo-6,7-dihydro[1,3]thiazolo[5,4-d]pyrimidin-2-yl]-N-((R)-1-phenylethyl)pyrrolidine-2-carboxamide] | 22 nM
Cn1c(C(F)(F)c2ccccn2)nc2sc(N3CCC[C@@H]3C(=O)NCc3ccccc3)nc2c1=O [Example 273, (R)-N-benzyl-1-{5-[difluoro(pyridin-2-yl)methyl]-6-methyl-7-oxo-6,7-dihydro[1,3]thiazolo[5,4-d]pyrimidin-2-yl}pyrrolidine-2-carboxamide] | 5.6 nM

Second part, the compound after the results:

IC50 | SMILES
32 nM | CCc1nc2sc(N3CCC[C@@H]3C(=O)NCc3cccc(F)c3)nc2c(=O)n1C [Example 183, (R)-1-(5-ethyl-6-methyl-7-oxo-6,7-dihydro-[1,3]thiazolo[5,4-d]pyrimidin-2-yl)-N-(3-fluorobenzyl)pyrrolidine-2-carboxamide]
26 nM | Cn1c(C(F)(F)F)nc2sc(N3CCC[C@@H]3C(=O)NCc3ccccc3)nc2c1=O [Example 190, (R)-N-benzyl-1-(6-methyl-7-oxo-5-trifluoromethyl-6,7-dihydro-[1,3]thiazolo[5,4-d]pyrimidin-2-yl)pyrrolidine-2-carboxamide]
31 nM | COCCn1c(C(F)F)nc2sc(N3CCC[C@@H]3C(=O)NCc3ccccc3)nc2c1=O [Example 191, (R)-N-benzyl-1-[5-difluoromethyl-6-(2-methoxy-ethyl)-7-oxo-6,7-dihydro-[1,3]thiazolo[5,4-d]pyrimidin-2-yl]pyrrolidine-2-carboxamide]
7.3 nM | Cc1noc(-c2nc3sc(N4CCC[C@@H]4C(=O)NCc4ccccc4)nc3c(=O)n2C)n1 [Example 211, (R)-N-benzyl-1-[6-methyl-5-(3-methyl-1,2,4-oxadiazol-5-yl)-7-oxo-6,7-dihydro[1,3]thiazolo[5,4-d]pyrimidin-2-yl]pyrrolidine-2-carboxamide]
4.8 nM | Cc1noc(-c2nc3sc(N4CCC[C@@H]4C(=O)NCc4ccccc4)nc3c(=O)n2CC(F)F)n1 [Example 221, (R)-N-benzyl-1-[6-(2,2-difluoroethyl)-5-(3-methyl-1,2,4-oxadiazol-5-yl)-7-oxo-6,7-dihydro[1,3]thiazolo[5,4-d]pyrimidin-2-yl]pyrrolidine-2-carboxamide]
72 nM | CC1(Cn2c(C(F)(F)F)nc3sc(N4CCC[C@@H]4C(=O)NCc4ccccc4)nc3c2=O)COC1 [Example 227, (R)-N-benzyl-1-{6-[(3-methyloxetan-3-yl)methyl]-7-oxo-5-trifluoromethyl-6,7-dihydro[1,3]thiazolo[5,4-d]pyrimidin-2-yl}pyrrolidine-2-carboxamide]
120 nM | CCc1nc2sc(N3CC[C@@H]3C(=O)NCc3ccccc3)nc2c(=O)n1C [Example 233, (R)-N-benzyl-1-(5-ethyl-6-methyl-7-oxo-6,7-dihydro-[1,3]thiazolo[5,4-d]pyrimidin-2-yl)azetidine-2-carboxamide]
240 nM | CCc1nc2sc(N3CCCC[C@@H]3C(=O)NCc3ccccc3)nc2c(=O)n1CC [Example 236, (R)-N-benzyl-1-(5,6-diethyl-7-oxo-6,7-dihydro-[1,3]thiazolo[5,4-d]pyrimidin-2-yl)piperidine-2-carboxamide]
16 nM | O=C(NCc1ccccc1)[C@H]1CCCN1c1nc2c(=O)n(C3CCCC3)cnc2s1 [Example 238, (R)-N-benzyl-1-(6-cyclopentyl-7-oxo-6,7-dihydro-[1,3]thiazolo[5,4-d]pyrimidin-2-yl)pyrrolidine-2-carboxamide]
19 nM | O=C(NCc1ccccc1)[C@H]1CCCN1c1nc2c(=O)n(N3CCCC3)c(C(F)(F)F)nc2s1 [Example 252, (R)-N-benzyl-1-[7-oxo-6-(pyrrolidin-1-yl)-5-trifluoromethyl-6,7-dihydro-[1,3]thiazolo[5,4-d]pyrimidin-2-yl]pyrrolidine-2-carboxamide]
11 nM | O=C(NCc1ccccc1)[C@H]1CCCN1c1nc2c(=O)n(CC3CCOCC3)c(C(F)F)nc2s1 [Example 254, (R)-N-benzyl-1-{5-difluoromethyl-7-oxo-6-[(tetrahydro-2H-pyran-4-yl)methyl]-6,7-dihydro-[1,3]thiazolo[5,4-d]pyrimidin-2-yl}pyrrolidine-2-carboxamide]
180 nM | COCc1nc2sc(N3CCC[C@@H]3C(=O)NCc3ccccc3)nc2c(=O)n1C1CC1 [Example 258, (R)-N-benzyl-1-[6-cyclopropyl-5-methoxymethyl-7-oxo-6,7-dihydro[1,3]thiazolo[5,4-d]pyrimidin-2-yl]pyrrolidine-2-carboxamide]
4.3 nM | Cn1c(C2CCOCC2)nc2sc(N3CCC[C@@H]3C(=O)NCc3ccccc3)nc2c1=O [Example 259, (R)-N-benzyl-1-[6-methyl-7-oxo-5-(tetrahydro-2H-pyran-4-yl)-6,7-dihydro[1,3]thiazolo[5,4-d]pyrimidin-2-yl]pyrrolidine-2-carboxamide]
8.8 nM | Cn1c(C2(F)CC2)nc2sc(N3CCC[C@@H]3C(=O)NCc3ccccc3)nc2c1=O [Example 268, (R)-N-benzyl-1-[5-(1-fluorocyclopropyl)-6-methyl-7-oxo-6,7-dihydro[1,3]thiazolo[5,4-d]pyrimidin-2-yl]pyrrolidine-2-carboxamide]
